Reference: patent publication US12544463B2, “Deuterium substituted positron emission tomography (PET) imaging agents and their pharmacological application” (Five Eleven Pharma Inc., priority 2017, dated 2026)
Values joined by “and” are separate entries in the source; they are usually repeats but may differ in a detail not shown here. Identical values can stand only once. One block for each compound: values may come before it.

What was measured:
[1] = Biodistribution in rats: ^18F-FP-(+)DTBZ vs ^18F-FP-DTBZ-D6; type: in vivo, rat; conditions: for Biodistribution Blood / Biodistribution Bone / Biodistribution Brain / Biodistribution Heart / Biodistribution Kidney / Biodistribution Liver / Biodistribution Lung / Biodistribution Muscle / Biodistribution Pancreas / Biodistribution Skin / Biodistribution Spleen: IV
Experimental: (§1) Three rats per group were used for each biodistribution study. While under isoflurane anesthesia, 0.2 mL of a saline solution containing 20 μCi of radioactive tracer was injected into the femoral vein. The rats were sacrificed at the time indicated by cardiac excision while under isoflurane anesthesia. Organs of interest were removed and weighed, and the radioactivity was counted. The percent dose per organ was calculated by comparing the tissue counts to counts of 1% of the initial dose (100 times diluted aliquots of the injected material) measured at the same time. Regional brain distribution in rats was measured after an iv injection of the radioactive tracer. Samples from different brain regions (cortex, striatum, hippocampus, cerebellum and hypothalamus) were dissected, weighed and counted. The percentage dose/g of each sample was calculated by comparing sample counts with the counts of the diluted initial dose described above. The ratio was calculated by dividing the percentage dose/g of each region by that of the cerebellum. The cerebellum was used as the reference region for calculating the ratio of target to non-target binding, because only a trace amount of VMAT2 binding site is present in the cerebellum.

VMAT2 = biological target: T1, VMAT2 (Rattus norvegicus, UniProt Q01827); assay: Regional brain distribution and ratio vs cerebellum in rats (VMAT2 tracers); type: in vivo; conditions: IV
T1 construct: from tissue; host or cells: live rats (normal male CD rats), dissected brain regions
Experimental: as §1

[2] = 60 min, listed as 18F-FP-DTBZ-D6 (^18F-Ia)
[3] = 120 min, listed as 18F-FP-DTBZ-D6 (^18F-Ia)

T1 sequence (Q01827 whole entry): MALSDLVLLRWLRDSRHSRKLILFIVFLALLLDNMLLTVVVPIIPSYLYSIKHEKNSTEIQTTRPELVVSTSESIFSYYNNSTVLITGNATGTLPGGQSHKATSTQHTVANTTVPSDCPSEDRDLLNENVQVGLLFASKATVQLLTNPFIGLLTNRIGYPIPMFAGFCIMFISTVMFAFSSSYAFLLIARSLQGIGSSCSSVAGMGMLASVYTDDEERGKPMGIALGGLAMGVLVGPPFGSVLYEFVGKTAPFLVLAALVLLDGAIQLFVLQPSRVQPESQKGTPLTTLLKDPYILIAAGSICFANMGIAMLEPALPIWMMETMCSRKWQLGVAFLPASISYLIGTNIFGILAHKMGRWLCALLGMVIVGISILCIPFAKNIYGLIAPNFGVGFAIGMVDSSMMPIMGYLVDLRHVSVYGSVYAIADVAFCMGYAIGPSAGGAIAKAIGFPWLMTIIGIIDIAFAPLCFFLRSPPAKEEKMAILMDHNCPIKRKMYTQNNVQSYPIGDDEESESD

Biodistribution Blood ([1]; 2 min): 0.24 ± 0.03 % dose/g
Biodistribution Bone ([1]; 2 min): 0.45 ± 0.03 % dose/g
Biodistribution Brain ([1]; 2 min): 0.83 ± 0.06 % dose/g
Biodistribution Heart ([1]; 2 min): 0.96 ± 0.08 % dose/g
Biodistribution Kidney ([1]; 2 min): 2.66 ± 0.15 % dose/g
Biodistribution Liver ([1]; 2 min): 2.28 ± 0.04 % dose/g
Biodistribution Lung ([1]; 2 min): 1.03 ± 0.03 % dose/g
Biodistribution Muscle ([1]; 2 min): 0.11 ± 0.02 % dose/g
Biodistribution Pancreas ([1]; 2 min): 2.29 ± 0.36 % dose/g
Biodistribution Skin ([1]; 2 min): 0.19 ± 0.03 % dose/g
Biodistribution Spleen ([1]; 2 min): 1.19 ± 0.10 % dose/g
Biodistribution Blood ([1]; 60 min): 0.12 ± 0.00 % dose/g
Biodistribution Bone ([1]; 60 min): 1.13 ± 0.07 % dose/g
Biodistribution Brain ([1]; 60 min): 0.35 ± 0.03 % dose/g
Biodistribution Heart ([1]; 60 min): 0.22 ± 0.03 % dose/g
Biodistribution Kidney ([1]; 60 min): 0.63 ± 0.05 % dose/g
Biodistribution Liver ([1]; 60 min): 2.59 ± 0.21 % dose/g
Biodistribution Lung ([1]; 60 min): 0.41 ± 0.03 % dose/g
Biodistribution Muscle ([1]; 60 min): 0.10 ± 0.01 % dose/g
Biodistribution Pancreas ([1]; 60 min): 4.48 ± 0.27 % dose/g
Biodistribution Skin ([1]; 60 min): 0.24 ± 0.03 % dose/g
Biodistribution Spleen ([1]; 60 min): 0.50 ± 0.04 % dose/g
Biodistribution Blood ([1]; 120 min): 0.07 ± 0.01 % dose/g
Biodistribution Bone ([1]; 120 min): 1.86 % dose/g and 1.86 ± 0.24 % dose/g
Biodistribution Brain ([1]; 120 min): 0.26 % dose/g and 0.26 ± 0.03 % dose/g
Biodistribution Heart ([1]; 120 min): 0.16 ± 0.01 % dose/g
Biodistribution Kidney ([1]; 120 min): 0.45 ± 0.02 % dose/g
Biodistribution Liver ([1]; 120 min): 2.12 ± 0.20 % dose/g
Biodistribution Lung ([1]; 120 min): 0.31 ± 0.02 % dose/g
Biodistribution Muscle ([1]; 120 min): 0.07 ± 0.00 % dose/g
Biodistribution Pancreas ([1]; 120 min): 3.56 ± 0.42 % dose/g
Biodistribution Skin ([1]; 120 min): 0.17 ± 0.01 % dose/g
Biodistribution Spleen ([1]; 120 min): 0.37 ± 0.05 % dose/g
Ratio vs. Cerebellum: Cerebellum (VMAT2; 2 min): 1.00 ± 0.00
Ratio vs. Cerebellum: Cortex (VMAT2; 2 min): 1.21 ± 0.04
Ratio vs. Cerebellum: Hippocampus (VMAT2; 2 min): 1.19 ± 0.03
Ratio vs. Cerebellum: Hypothalamus (VMAT2; 2 min): 1.57 ± 0.04
Ratio vs. Cerebellum: Remainder (VMAT2; 2 min): 1.23 ± 0.03
Ratio vs. Cerebellum: Striatum (VMAT2; 2 min): 1.66 ± 0.15
Regional Brain Distribution Cerebellum (VMAT2; 2 min): 0.68 ± 0.06 % dose/gram
Regional Brain Distribution Cortex (VMAT2; 2 min): 0.82 ± 0.07 % dose/gram
Regional Brain Distribution Hippocampus (VMAT2; 2 min): 0.80 ± 0.07 % dose/gram
Regional Brain Distribution Hypothalamus (VMAT2; 2 min): 1.06 ± 0.10 % dose/gram
Regional Brain Distribution Remainder (VMAT2; 2 min): 0.83 ± 0.06 % dose/gram
Regional Brain Distribution Striatum (VMAT2; 2 min): 1.12 ± 0.04 % dose/gram
Ratio vs. Cerebellum: Cerebellum (VMAT2; 60 min): 1.00 ± 0.00
Ratio vs. Cerebellum: Cortex (VMAT2; 60 min): 1.13 ± 0.09
Ratio vs. Cerebellum: Hippocampus (VMAT2; 60 min): 1.64 ± 0.19
Ratio vs. Cerebellum: Hypothalamus (VMAT2; 60 min): 3.91 ± 0.37
Ratio vs. Cerebellum: Remainder (VMAT2; 60 min): 1.68 ± 0.07
Ratio vs. Cerebellum: Striatum (VMAT2; 60 min): 5.66 and 5.66 ± 0.72
Regional Brain Distribution Cerebellum (VMAT2; 60 min): 0.19 ± 0.02 % dose/gram
Regional Brain Distribution Cortex (VMAT2; 60 min): 0.21 ± 0.01 % dose/gram
Regional Brain Distribution Hippocampus (VMAT2; 60 min): 0.30 ± 0.01 % dose/gram
Regional Brain Distribution Hypothalamus (VMAT2; 60 min): 0.73 ± 0.11 % dose/gram
Regional Brain Distribution Remainder (VMAT2; 60 min): 0.31 ± 0.02 % dose/gram
Regional Brain Distribution Striatum (VMAT2; 60 min): 1.04 ± 0.05 % dose/gram
Ratio vs. Cerebellum: Cerebellum (VMAT2; 120 min): 1.00 ± 0.00
Ratio vs. Cerebellum: Cortex (VMAT2; 120 min): 1.11 ± 0.09
Ratio vs. Cerebellum: Hippocampus (VMAT2; 120 min): 1.79 ± 0.12
Ratio vs. Cerebellum: Hypothalamus (VMAT2; 120 min): 4.04 ± 0.66
Ratio vs. Cerebellum: Remainder (VMAT2; 120 min): 1.59 ± 0.09
Ratio vs. Cerebellum: Striatum (VMAT2; 120 min): 6.54 ± 0.59
Regional Brain Distribution Cerebellum (VMAT2; 120 min): 0.13 ± 0.01 % dose/gram
Regional Brain Distribution Cortex (VMAT2; 120 min): 0.15 ± 0.02 % dose/gram
Regional Brain Distribution Hippocampus (VMAT2; 120 min): 0.24 ± 0.03 % dose/gram
Regional Brain Distribution Hypothalamus (VMAT2; 120 min): 0.54 ± 0.11 % dose/gram
Regional Brain Distribution Remainder (VMAT2; 120 min): 0.21 ± 0.02 % dose/gram
Regional Brain Distribution Striatum (VMAT2; 120 min): 0.87 ± 0.12 % dose/gram
SMILES: COc1cc2c(cc1OCCC[18F])CCN1C[C@@H](CC(C)C)[C@H](O)C[C@H]21 [^18F-FP-(+)DTBZ, reference compound]

increase in total brain uptake vs ^18F-FP-(+)DTBZ ([1]; 120 min after iv injection): 40%
Biodistribution Blood ([1]; 2 min): 0.23 ± 0.03 % dose/g
Biodistribution Bone ([1]; 2 min): 0.33 ± 0.04 % dose/g
Biodistribution Brain ([1]; 2 min): 0.64 ± 0.07 % dose/g
Biodistribution Heart ([1]; 2 min): 0.69 ± 0.12 % dose/g
Biodistribution Kidney ([1]; 2 min): 1.89 ± 0.07 % dose/g
Biodistribution Liver ([1]; 2 min): 2.79 ± 0.12 % dose/g
Biodistribution Lung ([1]; 2 min): 0.87 ± 0.05 % dose/g
Biodistribution Muscle ([1]; 2 min): 0.17 ± 0.02 % dose/g
Biodistribution Pancreas ([1]; 2 min): 2.62 ± 0.15 % dose/g
Biodistribution Skin ([1]; 2 min): 0.24 ± 0.02 % dose/g
Biodistribution Spleen ([1]; 2 min): 1.04 ± 0.10 % dose/g
Biodistribution Blood ([1]; 60 min): 0.11 ± 0.01 % dose/g
Biodistribution Bone ([1]; 60 min): 0.47 ± 0.02 % dose/g
Biodistribution Brain ([1]; 60 min): 0.44 ± 0.02 % dose/g
Biodistribution Heart ([1]; 60 min): 0.26 ± 0.01 % dose/g
Biodistribution Kidney ([1]; 60 min): 0.66 ± 0.04 % dose/g
Biodistribution Liver ([1]; 60 min): 3.19 ± 0.46 % dose/g
Biodistribution Lung ([1]; 60 min): 0.49 ± 0.00 % dose/g
Biodistribution Muscle ([1]; 60 min): 0.11 ± 0.00 % dose/g
Biodistribution Pancreas ([1]; 60 min): 5.01 ± 0.69 % dose/g
Biodistribution Skin ([1]; 60 min): 0.25 ± 0.01 % dose/g
Biodistribution Spleen ([1]; 60 min): 0.66 ± 0.03 % dose/g
Biodistribution Bone [1, 2]: 0.47 % dose/g
Biodistribution Blood ([1]; 120 min): 0.10 ± 0.00 % dose/g
Biodistribution Bone ([1]; 120 min): 0.65 ± 0.03 % dose/g
Biodistribution Brain ([1]; 120 min): 0.34 ± 0.02 % dose/g
Biodistribution Heart ([1]; 120 min): 0.21 ± 0.01 % dose/g
Biodistribution Kidney ([1]; 120 min): 0.59 ± 0.02 % dose/g
Biodistribution Liver ([1]; 120 min): 3.10 ± 0.49 % dose/g
Biodistribution Lung ([1]; 120 min): 0.41 ± 0.01 % dose/g
Biodistribution Muscle ([1]; 120 min): 0.09 ± 0.01 % dose/g
Biodistribution Pancreas ([1]; 120 min): 4.49 ± 0.17 % dose/g
Biodistribution Skin ([1]; 120 min): 0.21 ± 0.01 % dose/g
Biodistribution Spleen ([1]; 120 min): 0.51 ± 0.03 % dose/g
Biodistribution Bone [1, 3]: 0.65 % dose/g
Biodistribution Brain [1, 3]: 0.34 % dose/g
Ratio vs. Cerebellum: Cerebellum (VMAT2; 2 min): 1.00 ± 0.00
Ratio vs. Cerebellum: Cortex (VMAT2; 2 min): 1.36 ± 0.05
Ratio vs. Cerebellum: Hippocampus (VMAT2; 2 min): 1.26 ± 0.04
Ratio vs. Cerebellum: Hypothalamus (VMAT2; 2 min): 1.71 ± 0.10
Ratio vs. Cerebellum: Remainder (VMAT2; 2 min): 1.33 ± 0.03
Ratio vs. Cerebellum: Striatum (VMAT2; 2 min): 2.08 ± 0.30
Regional Brain Distribution Cerebellum (VMAT2; 2 min): 0.48 ± 0.04 % dose/gram
Regional Brain Distribution Cortex (VMAT2; 2 min): 0.65 ± 0.07 % dose/gram
Regional Brain Distribution Hippocampus (VMAT2; 2 min): 0.60 ± 0.07 % dose/gram
Regional Brain Distribution Hypothalamus (VMAT2; 2 min): 0.82 ± 0.10 % dose/gram
Regional Brain Distribution Remainder (VMAT2; 2 min): 0.64 ± 0.07 % dose/gram
Regional Brain Distribution Striatum (VMAT2; 2 min): 1.00 ± 0.22 % dose/gram
Ratio vs. Cerebellum: Cerebellum (VMAT2; 60 min): 1.00 ± 0.00
Ratio vs. Cerebellum: Cortex (VMAT2; 60 min): 1.13 ± 0.02
Ratio vs. Cerebellum: Hippocampus (VMAT2; 60 min): 1.68 ± 0.12
Ratio vs. Cerebellum: Hypothalamus (VMAT2; 60 min): 3.93 ± 0.15
Ratio vs. Cerebellum: Remainder (VMAT2; 60 min): 1.59 ± 0.04
Ratio vs. Cerebellum: Striatum (VMAT2; 60 min): 6.05 ± 0.43
Regional Brain Distribution Cerebellum (VMAT2; 60 min): 0.23 ± 0.01 % dose/gram
Regional Brain Distribution Cortex (VMAT2; 60 min): 0.26 ± 0.01 % dose/gram
Regional Brain Distribution Hippocampus (VMAT2; 60 min): 0.39 ± 0.01 % dose/gram
Regional Brain Distribution Hypothalamus (VMAT2; 60 min): 0.91 ± 0.03 % dose/gram
Regional Brain Distribution Remainder (VMAT2; 60 min): 0.37 ± 0.02 % dose/gram
Regional Brain Distribution Striatum (VMAT2; 60 min): 1.40 ± 0.06 % dose/gram
Ratio vs. Cerebellum: Striatum (VMAT2; [2]): 6.05
Ratio vs. Cerebellum: Cerebellum (VMAT2; 120 min): 1.00 ± 0.00
Ratio vs. Cerebellum: Cortex (VMAT2; 120 min): 1.10 ± 0.09
Ratio vs. Cerebellum: Hippocampus (VMAT2; 120 min): 1.74 ± 0.32
Ratio vs. Cerebellum: Hypothalamus (VMAT2; 120 min): 3.56 ± 0.49
Ratio vs. Cerebellum: Remainder (VMAT2; 120 min): 1.52 ± 0.03
Ratio vs. Cerebellum: Striatum (VMAT2; 120 min): 5.49 ± 0.43
Regional Brain Distribution Cerebellum (VMAT2; 120 min): 0.18 ± 0.01 % dose/gram
Regional Brain Distribution Cortex (VMAT2; 120 min): 0.20 ± 0.00 % dose/gram
Regional Brain Distribution Hippocampus (VMAT2; 120 min): 0.31 ± 0.04 % dose/gram
Regional Brain Distribution Hypothalamus (VMAT2; 120 min): 0.65 ± 0.11 % dose/gram
Regional Brain Distribution Remainder (VMAT2; 120 min): 0.28 ± 0.02 % dose/gram
Regional Brain Distribution Striatum (VMAT2; 120 min): 1.00 ± 0.08 % dose/gram
SMILES: [2H]C([2H])([18F])C([2H])([2H])C([2H])([2H])Oc1cc2c(cc1OC)[C@H]1C[C@@H](O)[C@H](CC(C)C)CN1CC2 [^18F-FP-(+)DTBZ-D6 (^18F-Ia)]
